Data published in patent publication USRE35053E, “Amines useful in producing pharmaceutically active CNS compounds” (The Upjohn Company, priority 1992, dated 1995).
Where a name gives a salt, the structure may show the parent alone.

How the values were obtained:
[1] = system: AcylCoA:Cholesterol Acyltransferase (ACAT); experiment: AcylCoA:Cholesterol Acyltransferase (ACAT) inhibition Assay; assay type: cell-based; design: key: compounds which inhibit ACAT activity equal to, or greater than, that of chlorpromazine are considered "active"; conditions: active = equal to or greater than chlorpromazine; Fu5AH cells preferred
Description: ACAT esterifies arterial cholesterol which is a key reaction in the development of atherosclerosis. The procedure of Bell, Can. J. Blochem. 60. […] In the ACAT assay it is preferred to use Fu5AH cells, see Lipids 9, 526 (1974). According to this procedure, compounds which inhibit ACAT activity equal to, or greater than, that of chlorpromazine are considered "active".

[2] = system: serum and arterial cholesterol; experiment: Antiatherosclerosis screen in Susceptible to Experimental Atherosclerosis (SEA) Japanese Quail; assay type: in vivo; conditions: SEA Japanese quail fed atherogenic diet; active = decrease >30 %
Experimental: While not necessary, some minor modifications for extraction of cholesterol from the artery have been made. These are as follows: frozen arteries are homogenized in hexane/isopropanol (3/2) and the volume adjusted with Triton 100 solution (1.5% in hexane/isopropanol) to 7 ml. After standing 12 hr at 20°-25°, the supernatant, obtained by low speed centrifugation is evaporated until dry and then the residue is suspended in 0.5 ml of 5% Triton 100 in isopropanol. This suspension is incubated for 10 min at 45° to dissolve the material. This solution as well as the diluted serum samples are analyzed for cholesterol by standard clinical chemistry analyzer methods. According to the above procedure compounds which decrease serum or arterial cholesterol >30 % are considered to be "active".
Compounds which reduce serum and arterial cholesterol and are useful in treating atherosclerosis and its complications; for example, reduction of serum cholesterol by drugs reduces the incidence of coronary heart disease JAMA 251, 351 (1984) and JAMA 251, 365 (1984).

angiogenesis = experiment: fertile egg or chick embryo assay of Folkman (inhibition of angiogenesis / tumor growth); assay type: in vivo; conditions: chick embryo; 50 μg/10 μl in the presence of heparin
Experimental: According to this procedure compounds which are considered to be "active" (i.e, antiangiogenic) give an avascular zone of 4 mm or greater in some embryos when tested at 50 μg/10 μl in the presence of 50 μg/10 μ of heparin.

interleukin-1 = experiment: inhibition of interleukin-1 induced T cell proliferation assay; assay type: cell-based; conditions: interleukin-1; 10^-6 M
Description: The inhibition of interleukin-1 induced T cell proliferation assay, Proc. Nat. […] Since people with arthritis make excess interleukin 1, compounds which inhibit the activity of interleukin 1 are useful in the treatment of arthritis. According to this procedure compounds which inhibit the activity of interleukin 1 greater that 30% at 10^-6 M are considered to be "active".

[3] = system: induced mucous secretions; experiment: inhibition of mucous secretion assay of Johnson; conditions: inhibit or block enhancement of induced mucous secretions
Description: The inhibition of mucous secretion assay of Johnson Int. […] According to this procedure compounds which inhibit or block enhancement of induced mucous secretions when tested are considered to be "active".

aspirin induced ulcer = experiment: aspirin/cold induced ulcer assay of Rainsford; assay type: in vivo; conditions: active = 50% or more reduction of ulcer index
mouse head injury = experiment: in vivo mouse head injury procedure of Hall, grip test; conditions: statistically significant (p<0.05)
arachidonic acid = experiment: Arachidonic Acid Antagonism Assay (AAAA); assay type: in vivo, mouse (Charles River male CF-1); conditions: mice; IV, 15 min before sodium arachidonate; outside 95% confidence interval of control LD50
How it was run: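 Male CF-1 mice ([…]) received compound IV in 1.0% Tween-80/0.1% HCl in water. LD50 was determined by Spearman-Karber (log dose interval 0.05, N-6); an LD50 raised outside the control 95% confidence interval counted as active.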

Structure (SMILES) | inhibition of ACAT [1] | % Inhibition at 10^-6 M (interleukin-1) | inhibition of mucous secretion [3] | % Increase in 1 hr Post-Injury Grip Test Scores After 3 mg/kg (mouse head injury) | other results
C[C@]12CCC(=O)C=C1CC[C@@H]1C2=CC[C@@]2(C)[C@H]1CC[C@]2(O)C(=O)CN1CCN(c2ccccn2)CC1.Cl [Example 3, 17α-Hydroxy-21-[4-(2-pyridinyl) 1 piperazinyl]pregna-4,9(11)-diene-3,20dione hydrogen chloride salt] | active |  |  |  | reduction of arterial cholesterol [2]: demonstrates reduction of serum and arterial cholesterol; reduction of serum cholesterol [2]: demonstrates reduction of serum and arterial cholesterol
CCN(CC)c1cc(N2CCN(CC(=O)[C@@]3(O)CC[C@H]4[C@@H]5CCC6=CC(=O)CC[C@]6(C)C5=CC[C@@]43C)CC2)nc(N(CC)CC)n1 [Example 16, 17α-Hydroxy-21-[4-[2,6-bis(diethylamino)pyrimidinyl]-1-piperazinyl]pregna4,9(11)-diene-3,20-dione dihydro-chloridehydrate] |  | 84% | demonstrate such activity |  | % of Embryos with 4 mm or Greater A vascular Zone (angiogenesis): 91%; anti-ulcer activity (aspirin induced ulcer): demonstrates anti-ulcer activity
CCN(CC)c1cc(N2CCN(CC(=O)[C@@]3(O)[C@H](C)C[C@H]4[C@@H]5CCC6=CC(=O)C=C[C@]6(C)C5=CC[C@@]43C)CC2)nc(N(CC)CC)n1.Cl.O [Example 18, 21-[4-[2,6-Bis(diethylamino)-4-pyrimidinyl]-1-piperazinyl]-17α-hydroxy-16α-methylpregna-1,4,9(11)-triene-3,20-dione hydrochloride hydrate] | active |  | demonstrate such activity |  | 
C[C@]12CCC(=O)C=C1CC[C@@H]1C2=CC[C@@]2(C)[C@H]1CC[C@]2(O)C(=O)CN1CCOCC1 [Example 93, 17α-hydroxy-21-(4-morpholino)-pregna-4,9(11)-diene-3,20-dione(E)-2-butanedioate (1:1) salt] |  | 62% |  | 134.5% | arachidonic acid antagonism (elevation of LD50 of arachidonic acid) (arachidonic acid): demonstrate arachidonic acid antagonism
CCNc1cccc(N2CCN(CC(=O)[C@H]3[C@H](C)C[C@H]4[C@@H]5CCC6=CC(=O)C=C[C@]6(C)C5=CC[C@@]43C)CC2)n1 [Example 127, 21-[4-[6-(Ethylamino)-2-pyridinyl]piperazinyl]-16α-methylpregna-1,4,9(11)-triene-3,20-dione hydrochloride] |  |  |  | 200.8% | 
